Values joined by “and” are separate entries in the source; they are usually repeats but may differ in a detail not shown here. Equal values may be shown once. Read-outs that look alike come from different tables or passages of the source.
Tests used:
[1] = tested on: pentobarbital-anesthetized male rats; test: Shaking frequency (wet-dog shaking) of anesthetized rats after intravenous, perioral or topical delivery; format: in vivo; conditions: anesthetized rat
Method: In experiments conducted here, test compounds were evaluated for “wet-dog shaking” as a model of cooling sensation. Using a standardized procedure, test compounds were compared in their ability to stimulate the shaking response by intravenous injection into a cannulated femoral vein, by perioral administration, and by topical delivery to the abdominal skin.
Each rat was given two injections with a 30 min interval. […] Shaking frequency was counted for 15 min after injection. Shaking was observed immediately after i.v. injection and at least 78% of the total shakes occurred in the first 5 min after injection. The response in the second trial was at least as robust in the first trial, showing the lack of desensitization.
Test compounds were dissolved in saline and administered by oral gavage to pentobarbital-anesthetized male albino rats at 20 mg/kg at a volume of 0.1 mL/100 g body weight [N=3 to 4 rats per compound]. Shaking was counted over a 40 min period and recorded at 10-min intervals.
For topical application of DAPA, the abdominal skin of the anesthetized rat was shaved and 20 μL of the pure DAPA was applied with a micropipette onto a ˜1 cm diameter circle of skin, enclosed with a ring of cream [Baby cream “Nevskaya kosmetika Detskyi” Nevskaya Kosmetika Inc., Saint-Petersburg 192029], as shown in FIG. 5D. The number of shakes was counted for 1 hr after application.

[2] = tested on: human circular smooth muscle; test: Spontaneous contractions of human colon circular smooth muscle strips in organ bath; conditions: for IC50: read-out: median inhibitory concentration (IC50)
Method: In this present study, Dapa was examined by Amato in her test system. […] As shown in the FIG. 3, DAPA-2-5, prepared as a solution dissolved in distilled water, produced a dose-dependent reduction of the amplitude of human colon smooth muscle contractions when it was added to the organic bath.
The experimental procedures were approved by the Ethics Committee, University of Palermo, Italy. Human distal colon samples were obtained after informed consent from patients without LGIT disorders. The specimens were immediately placed in preoxygenated Krebs solution and stored overnight at 4° C. Circular muscular strips (4 mm wide by 10 mm long) were cut and suspended in a four-channel organ bath and connected to an isometric force transducer (FORT 25, Ugo Basile, Biological Research Apparatus, Comerio, Va., Italy). The organ bath contained 8 mL of oxygenated Krebs solution at 37° C. Mechanical activity was analyzed using the PowerLab/400 system (Ugo Basile). A tension of 1 g was applied, and strips allowed to equilibrate until spontaneous phasic contractions were recorded. Dapa compounds were added at step concentrations of 1 to 300 μM to the organ bath, with washing in between, and the contractions recorded after 4 min when the drug effect stabilizes. The TRPM8 antagonist, 5-BT (10^−5 M), was added at least 15 min before Dapa.

TRPM8 = TRPM8 (Homo sapiens, UniProt Q7Z2W7); test: TRPM8 receptor agonist assay (Fluo-8 calcium, FLIPR); format: cell-based; design: host or cells: CHO cells, stably transfected
Method: Compounds were tested on (CHO) cells stably transfected with human TRPM8 cDNAs using a Fluo-8 calcium kit and a Fluorescence Imaging Plate Reader ([…]™) instrument. […] Solutions were prepared by diluting stock solutions in a HEPES-buffered physiological saline (HBPS) solution. Test compound and control formulations were loaded in polypropylene or glass-lined 384-well plates, and placed into the FLIPR instrument (Molecular Devices Corporation, Union City, Calif., USA). Each was tested at 8 concentrations with n=4 replicates per determination. […] For […]™ assay, cells were plated in 384-well black wall, flat clear-bottom microtiter plates (Type: BD Biocoat Poly-D-Lysine Multiwell Cell Culture Plate) at approximately 30,000 cells per well. Cells were incubated at 37° C. overnight to reach a near confluent monolayer appropriate for use in a fluorescence assay. The test procedure was to remove the growth media and to add 40 μL of HBPS containing Fluo-8 for 30 minutes at 37° C. 10 μL of test compound, vehicle, or control solutions in HBPS were added to each well and read for 4 minutes. Concentration-response data were analysed via the FLIPR Control software that is supplied with the FLIPR System (MDS-AT) and fitted to a Hill equation.

Sequence of TRPM8 (Q7Z2W7 whole entry): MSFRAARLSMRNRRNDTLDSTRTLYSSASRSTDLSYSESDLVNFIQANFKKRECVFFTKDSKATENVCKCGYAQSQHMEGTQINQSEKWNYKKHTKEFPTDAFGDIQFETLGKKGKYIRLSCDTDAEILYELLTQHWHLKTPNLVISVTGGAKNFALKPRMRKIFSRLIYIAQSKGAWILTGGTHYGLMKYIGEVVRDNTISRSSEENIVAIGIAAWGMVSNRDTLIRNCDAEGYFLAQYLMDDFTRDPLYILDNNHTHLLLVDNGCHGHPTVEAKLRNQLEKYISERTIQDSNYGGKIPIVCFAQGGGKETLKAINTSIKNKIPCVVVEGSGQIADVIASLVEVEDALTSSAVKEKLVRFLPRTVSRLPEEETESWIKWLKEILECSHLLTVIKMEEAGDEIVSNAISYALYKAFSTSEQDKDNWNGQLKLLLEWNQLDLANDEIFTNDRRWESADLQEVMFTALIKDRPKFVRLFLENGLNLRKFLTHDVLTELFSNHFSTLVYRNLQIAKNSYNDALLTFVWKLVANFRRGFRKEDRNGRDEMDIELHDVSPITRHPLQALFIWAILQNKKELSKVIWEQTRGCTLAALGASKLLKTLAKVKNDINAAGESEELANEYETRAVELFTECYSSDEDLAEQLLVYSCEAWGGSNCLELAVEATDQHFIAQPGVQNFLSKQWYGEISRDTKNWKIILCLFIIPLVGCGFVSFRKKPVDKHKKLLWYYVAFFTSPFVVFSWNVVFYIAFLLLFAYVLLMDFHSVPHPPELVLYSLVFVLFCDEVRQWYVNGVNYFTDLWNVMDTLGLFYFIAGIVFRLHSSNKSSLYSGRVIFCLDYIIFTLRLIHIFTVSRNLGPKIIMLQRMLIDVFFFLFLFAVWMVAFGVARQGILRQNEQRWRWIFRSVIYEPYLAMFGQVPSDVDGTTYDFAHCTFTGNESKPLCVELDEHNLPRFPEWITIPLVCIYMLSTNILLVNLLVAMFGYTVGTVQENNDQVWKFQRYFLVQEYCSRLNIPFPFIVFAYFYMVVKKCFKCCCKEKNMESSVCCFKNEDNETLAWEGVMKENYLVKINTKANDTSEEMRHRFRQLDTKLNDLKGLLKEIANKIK

CCCCCP(=O)(C(C)CC)C(C)CC (centres unmarked) [DAPA-2-5, 1-Di(sec-butyl) phosphinoyl-pentane]
Shaking frequency, Intravenous ([1]; 2 mg/kg i.v., 2nd trial, counted for 15 min): 20 ± 2 shakes
Shaking frequency, Perioral ([1]; 20 mg/kg by oral gavage, counted for 40 min): 4 shakes and 4 ± 1 shakes
Shaking frequency, Topical ([1]; 20 μL pure compound on shaved abdominal skin, counted for 1 hr): 0 shakes
IC50 ([2]; amplitude of spontaneous contractions, human distal colon circular muscle): 34 µM
effect of TRPM8 antagonist on the inhibition of contractions ([2]; pretreatment with 5-BT (10^−5 M)): inhibited by pretreatment with 5-BT
IC50 ([2]; spontaneous contractions, human circular smooth muscle in vitro): 8 µg/mL
×Menthol (TRPM8; TRPM8 relative potency as repeated in Table 4): 2.2
Relative Potency (TRPM8; relative to menthol = 1.0 (Table 2)): 2.2
